Compared with `O=C(Nc1c[nH]nc1C(=O)NCc1ccccc1)c1ccccn1`, `CNC(=O)c1cccc(Oc2ncccc2C(=O)NCc2ccccc2)c1` is lower in melting point: 204 to 205 °C for the first, 164 to 167 °C for the second.

First: COC(=O)c1ccc(OCCNC(=O)C2Cc3ccccc3N2S(=O)(=O)c2ccc(-c3ccc(F)cc3)cc2)cc1 (stereo not drawn)
Second: COC(=O)Cc1ccc(OCCNC(=O)C2Cc3ccccc3N2S(=O)(=O)c2ccc(-c3ccc(F)cc3Cl)cc2)cc1 (stereo not drawn)
The melting point of the first is higher: 70 to 72 °C for the first, 68 °C for the second.

Compared with `CC(C)c1cc(C(C)C)c(CC(=O)NS(=O)(=O)Oc2c(C(C)C)cc(SC#N)cc2C(C)C)c(C(C)C)c1`, `CC(C)c1cc(C(C)C)c2c(c1)C1(N)C(=O)c3ccccc3C1(O)O2` (stereo not drawn) is higher in melting point: 164 to 165 °C for the first, 199 to 200 °C for the second.

First: O=[N+]([O-])c1cccc2ccc3c(c12)C(CCl)CN3 (stereo not drawn)
Second: O=C1CCc2c(ccc3ccc(O)cc23)O1
The melting point of the first is lower: 100 °C for the first, 194 to 202 °C for the second.

Compared with `O=C1NC(Cc2ccc(OCc3ccccc3)cn2)C(=O)NC1Cc1ccc(OCc2ccccc2)cc1` (stereo not drawn), `O=C(NCCCl)NCC1(Cc2ccccc2)CC(=O)C(OCc2ccccc2)=CN1` (stereo not drawn) is lower in melting point: 200 to 202 °C for the first, 130 °C for the second.

First: N#CC(Cl)=C(Cl)S(=O)(=O)c1cc(Cl)ccc1Cl
Second: CC(C)(C)OC(=O)C(N)CCCCNC(=O)c1ccc(Cl)c(S(N)(=O)=O)c1 (stereo not drawn)
The melting point of the first is lower: 84 °C for the first, 158 to 160 °C for the second.

First: CCOc1cc2c(c3c1OC(C)(C)C3)C(c1ccccc1)=[N+]([O-])C(C)(C)C2
Second: CC(C)N1C(=O)NCc2c(-c3ccccc3)cccc21
The melting point of the first is lower: 125 to 126 °C for the first, 182 to 183 °C for the second.

Compared with `O=C(O)CC/C=C\CC[C@@H]1[C@@H](OCc2ccc(-c3ccccc3)cc2)CO[C@@H]1c1cccnc1`, `O=c1ccc(S(=O)(=O)c2ccc(-c3ccccc3)cc2)n[nH]1` is higher in melting point: 94 to 96 °C for the first, 219 to 220 °C for the second.

First: Cc1nc(-c2ccc3c(c2)c2cc(-c4ccc(Cl)cc4Cl)c(=O)n(C)c2n3C)cs1
Second: COc1ccc(-c2csc(Nc3ccc(C(F)(F)F)cn3)n2)cc1OC
The melting point of the first is higher: 253 to 254 °C for the first, 244 to 247 °C for the second.

First: CCOc1cc2c(cc1OCC)C(C(C#N)SCCO)=NCC2 (stereo not drawn)
Second: COc1cc(OC)cc(C(=CC#N)c2ccc3ncccc3c2)c1
The melting point of the first is lower: 94 to 96 °C for the first, 142 to 144 °C for the second.

Compared with `Nc1ccc2c(C3=CN4CCC3CC4)c[nH]c2c1`, `CS(=O)(=O)Nc1ccc(OCC2CCN(c3cc(N)ccn3)CC2)cc1` is higher in melting point: 65 to 67 °C for the first, 213 to 214 °C for the second.

First: Cc1c(SCCN2CCc3ccccc3C2)ccnc1CSc1nc2ccccc2[nH]1
Second: Clc1ccc(C(c2ccccc2)N2CCN(c3nc4cccc5c4n3CCC5)CC2)cc1 (stereo not drawn)
The melting point of the first is lower: 90 to 94 °C for the first, 167 to 169 °C for the second.

First: CC(C)c1ccc([N+](=O)[O-])c(C(C)C)c1NC(=O)CN1CCN(CCSc2nc3ccccc3o2)CC1
Second: CCOC(=O)C(O)CCc1ccc(C(=O)CCc2nc(-c3ccccc3)oc2C)cc1 (stereo not drawn)
The melting point of the first is higher: 143 to 145 °C for the first, 87 to 88 °C for the second.

First: CC(C)(C)c1ccc(OP(Oc2ccc(C(C)(C)C)cc2C(C)(C)C)c2cccc3ccccc23)c(C(C)(C)C)c1
Second: O=C(O)c1ccccc1Oc1ccc(C(F)(F)F)cc1NS(=O)(=O)c1ccc(C(F)(F)F)cc1
The melting point of the first is lower: 125 to 127 °C for the first, 175 °C for the second.

First: Clc1ccc(CN2CC=C(C=Cc3ccsc3)CC2)cc1
Second: N#CC1CN1OCc1ccc(Cl)cc1 (stereo not drawn)
The melting point of the first is higher: 125 to 127 °C for the first, 45 to 48 °C for the second.

First: CSc1ccc(C(=O)Cc2cccc(F)c2)cc1
Second: CCc1ccc(NC(=O)OCc2ccccc2)nc1
The melting point of the first is lower: 94.5 to 95.5 °C for the first, 125 to 127 °C for the second.

First: CCOCc1nc2c(N)nc3ccc(O)cc3c2n1CCCCN(C(N)=O)c1ccccc1
Second: Cc1nc(CO)c(OCc2ccccc2)c(=O)n1C
The melting point of the first is higher: 218 to 221 °C for the first, 93 to 95 °C for the second.

First: COc1cccc(CC(=O)O)c1OCCCc1ccc(OC(C)C)cc1Oc1ncc(C(F)(F)F)cc1Cl
Second: CC(C)Oc1cc(CCCOc2nn(C)cc2CC(=O)O)n(Cc2ccc(Cl)cc2Cl)n1
The melting point of the first is higher: 100 to 101 °C for the first, 96 to 97 °C for the second.

Compared with `COc1cc(-n2nc(C(F)(F)F)cc2-c2ccc(S(C)(=O)=O)cc2)ccc1Cl`, `CS(=O)(=O)c1ccc(N2CC(O)(C(F)(F)F)N=C2c2ccccn2)cc1` (stereo not drawn) is higher in melting point: 157 to 158 °C for the first, 195 to 198 °C for the second.

First: CC(F)(F)CC(Br)c1ccccc1S(N)(=O)=O (stereo not drawn)
Second: CC(Oc1cccc(Oc2ccc(C(F)(F)F)cc2)c1)C(=O)OCCS(=O)Cc1ccccc1 (stereo not drawn)
The melting point of the first is lower: 104 to 105 °C for the first, 110 to 112 °C for the second.

First: CC1(C)CC(=O)c2c(ncc3[nH]c4cc(Cl)ccc4c23)C1
Second: Cn1nc(-c2ncc(Cl)cc2F)cc1Br
The melting point of the first is higher: 257 to 259 °C for the first, 110 to 111 °C for the second.

First: Cc1cc(O)c2c(c1)CCC2
Second: COc1ccc(C2CCc3cc(C)ccc3C2=O)cc1 (stereo not drawn)
The melting point of the first is higher: 82 to 83 °C for the first, 80 to 82 °C for the second.

First: CCCN(CCCc1c[nH]c2ccc(F)cc12)C1COc2ccc3ncccc3c2C1 (single isomer, unassigned; (+))
Second: CS(=O)(=O)N(CCc1ccccn1)CC(O)(Cn1cncn1)c1ccc(Cl)cc1Cl (stereo not drawn)
The melting point of the first is lower: 106 °C for the first, 151 to 153 °C for the second.

Compared with `COc1ccc2c(c1)[C@@H]1c3ccccc3N[C@@H]1C2` (relative stereo), `COC(=O)C(=NOC(F)F)c1ccccc1COc1cc(C)ccc1C` is lower in melting point: 129 to 130 °C for the first, 61 to 65 °C for the second.

Compared with `COc1ccc(C=CC(=O)c2cc(Oc3ccccc3)c(NS(C)(=O)=O)cc2O)cc1OC`, `CCOC(=O)C=Cn1c(=O)n2nc(C(=O)OCC)cc2c2cc(OC)ccc21` is lower in melting point: 210 to 212 °C for the first, 153 to 154 °C for the second.

First: CCOC(=O)C1OC(n2cnc3c(N)ncnc32)C(O)C1N (stereo not drawn)
Second: CNC(=O)CC1CSc2c(C(=O)OC(C)C)c(C)cn21 (stereo not drawn)
The melting point of the first is higher: 179 to 182 °C for the first, 108 to 109 °C for the second.

Compared with `O=C1c2ccccc2-c2cc(Nc3nc(Nc4ccc5c(c4)-c4ccccc4C5=O)nc(-c4cccn4Cc4ccccc4)n3)ccc21`, `Cc1c(CC2CCc3c(c4ccccc4n3Cc3ccccc3)C2=O)ncn1C(c1ccccc1)(c1ccccc1)c1ccccc1` (stereo not drawn) is lower in melting point: 140 to 142 °C for the first, 78 to 80 °C for the second.

`CC(=O)c1ccc2nc(NC(=O)c3ccc(C(C)(C)C)cc3)cn2n1` and `NNC(=O)c1ccc(N2CCNC2=O)cc1` cannot be ordered by melting point: 237 to 238 °C for the first, greater than 200 °C for the second.

First: CC(=O)OC1CSC(Oc2cncc(Cl)c2)C(OC(C)=O)C1OC(C)=O (stereo not drawn)
Second: COCC1=C(C(=O)OC)[C@H](c2ccc(F)c(F)c2)N(C(=O)NCCC(=O)O)C(=O)N1
The melting point of the first is higher: 160 °C for the first, 52 to 55 °C for the second.

First: S=C(NCCCC1(Cl)CC=CS1)Nc1ccccn1 (stereo not drawn)
Second: N=C(N)NCCCCOc1ccc2c(c1)CC(CC(=O)O)C(=O)N2 (stereo not drawn)
The melting point of the first is lower: 116 to 122 °C for the first, 170 to 173 °C for the second.

First: O=[N+]([O-])C(Br)(Br)CCO
Second: O=[N+]([O-])c1ccc(O)cc1OCCO
The melting point of the first is lower: 22 to 25 °C for the first, 167 °C for the second.

Compared with `O=C1Nc2ccc(NC(=O)c3cccn(-c4ccc(F)cc4)c3=O)cc2/C1=C/c1ccc[nH]1`, `NC(=O)c1[nH]c2ccccc2c1-c1ccc(NC(=O)Nc2cccc(C(F)(F)F)c2)cc1` is lower in melting point: greater than 300 °C for the first, 156 to 158 °C for the second.

First: Cc1ccc(-c2nc(Cc3cc4cc(CCl)ccc4o3)c(C)o2)cc1
Second: Cc1ccc2c(c1)c(N1CCNCC1)c(C#N)c(=O)n2Cc1ccc(F)cc1
The melting point of the first is higher: 145 to 146 °C for the first, 121 °C for the second.

First: OCCCCc1ccc(OCc2coc(/C=C/c3ccccc3)n2)cc1
Second: CCCc1c(CSc2nnc(SCCCCCC(=O)O)s2)ccc(C(C)=O)c1O
The melting point of the first is higher: 90 to 91 °C for the first, 67 to 74 °C for the second.
